Data published in patent publication US11345711B2, “8,9-dihydroimidazo[1,2-a]pyrimido[5,4-e]pyrimidin-5(6H)-ones” (IMPACT THERAPEUTICS (SHANGHAI), INC, priority 2016, dated 2022).
Where two headings read alike, the source gives them in different places.

What was measured:
Wee1 (h) = Wee1 (h) (Homo sapiens, UniProt P30291); experiment: Wee1 kinase (h) detection method, [γ-33P]-ATP filter assay; format: biochemical
NCI-H1299 cells = experiment: MTT based cell viability assay on NCI-H1299 cells; settings: for IC50: read-out: IC50, growth inhibition of NCI-H1299 cells
Outline: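 NCI-H1299 cells (1000/well, settled overnight) were exposed for 3 d at 37 °C, 5% CO2, to an eight-point series of 10 μM to 0.01 μM plus DMSO blank, as prepared in DMSO (final DMSO 1‰). MTT (0.5 mg/mL, 4 h) was read at 552/630/690 nm. IC50 came from sigmoidal dose-response fits of survival.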

LoVo cells = experiment: MTT based cell viability assay on LoVo cells; settings: for IC50: Homo sapiens, LoVo, 72 h, 3 d, read-out: IC50, growth inhibition of LoVo cells
Outline: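 Inhibition of LoVo proliferation was derived as IC50 from a sigmoidal dose-response fit of cell survival. Readout was MTT (0.5 mg/mL, 4 h) with absorbance at 552/630/690 nm, after 3-day treatment at 37 °C. Eight-point series from 10 μM to 0.01 μM, DMSO control, 1% DMSO final.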

[1] = Homo sapiens, NCI-H1299, NCI-H1299 cells

Wee1 (h), sequence (P30291 whole entry): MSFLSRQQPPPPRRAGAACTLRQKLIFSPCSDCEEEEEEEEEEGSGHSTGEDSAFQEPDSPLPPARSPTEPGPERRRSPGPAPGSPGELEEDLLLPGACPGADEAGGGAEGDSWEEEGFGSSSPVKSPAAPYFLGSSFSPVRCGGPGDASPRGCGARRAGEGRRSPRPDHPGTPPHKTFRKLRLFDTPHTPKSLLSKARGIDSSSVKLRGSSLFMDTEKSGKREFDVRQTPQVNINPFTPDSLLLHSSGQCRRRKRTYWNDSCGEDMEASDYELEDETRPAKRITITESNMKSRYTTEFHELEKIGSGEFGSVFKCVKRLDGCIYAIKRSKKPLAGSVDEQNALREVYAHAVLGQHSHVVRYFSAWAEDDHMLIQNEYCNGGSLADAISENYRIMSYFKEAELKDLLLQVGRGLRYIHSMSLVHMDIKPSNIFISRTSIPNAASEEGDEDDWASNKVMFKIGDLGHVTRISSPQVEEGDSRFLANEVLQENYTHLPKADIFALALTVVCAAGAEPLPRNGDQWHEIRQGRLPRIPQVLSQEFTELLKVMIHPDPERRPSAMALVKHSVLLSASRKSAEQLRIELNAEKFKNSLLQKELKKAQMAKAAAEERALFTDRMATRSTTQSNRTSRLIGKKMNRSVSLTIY

| Inh. (%) of Wee1 kinase enzyme activity (Wee1 (h); C 0.01 μm compound) [%] | Inh. (%) of Wee1 kinase enzyme activity (Wee1 (h); C 0.1 μm compound) [%] | Inh. (%) of Wee1 kinase enzyme activity (Wee1 (h); C 1 μm compound) [%] | IC50 (NCI-H1299 cells; Homo sapiens, NCI-H1299 cells) [nM] | IC50 (LoVo cells) [nM] | IC50 (NCI-H1299 cells; [1]) [nM] | IC50 (NCI-H1299 cells; NCI-H1299 cells) [nM] | SMILES | inhibitory effect on the growth of NCI-H1299 cells compared with AZD1775 (NCI-H1299 cells) | inhibitory effect on the growth of LoVo cells compared with AZD1775 (LoVo cells) |
| --- | --- | --- | --- | --- | --- | --- | --- | --- | --- |
| – | – | 0 | > 10000 | > 100000 | – | – | C[C@@H]1CN(c2ccc(Nc3ncc4c(n3)N3CCN=C3N(c3c(Cl)cccc3Cl)C4=O)c(F)c2)C[C@H](C)N1C [Example 66, 6-(2,6-Dichlorophenyl)-2-((2-fluoro-4-((3S,5R)-3,4,5-trimethylpiperazin-1-yl)phenyl)amino)-8,9-dihydroimidazo[1,2-a]pyrimido[5,4-e]pyrimidin-5(6H)-one] | – | – |
| – | – | 24 | > 10000 | > 100000 | – | – | C[C@@H]1CN(c2ccc(Nc3ncc4c(n3)N3CCN=C3N(c3c(Cl)cccc3Cl)C4=O)c(Cl)c2)C[C@H](C)N1C [Example 67, 6-(2,6-Dichlorophenyl)-2-((2-chloro-4-((3S,5R)-3,4,5-trimethylpiperazin-1-yl)phenyl)amino)-8,9-dihydroimidazo[1,2-a]pyrimido[5,4-e]pyrimidin-5(6H)-one] | – | – |
| – | – | 6 | > 10000 | > 100000 | – | – | C[C@@H]1CN(c2ccc(Nc3ncc4c(n3)N3CCN=C3N(c3c(Cl)cccc3Cl)C4=O)c(C(F)(F)F)c2)C[C@H](C)N1C [Example 68, 6-(2,6-Dichlorophenyl)-2-((2-trifluoromethyl-4-((3S,5R)-3,4,5-trimethylpiperazin-1-yl)phenyl)amino)-8,9-dihydroimidazo[1,2-a]pyrimido[5,4-e]pyrimidin-5(6H)-one] | – | – |
| 24 | 73 | 97 | – | 105 | 426 | – | CN1CCN(c2ccc(Nc3ncc4c(n3)N3CCN=C3N(c3c(Cl)cccc3Cl)C4=O)cc2F)CC1 [Example 69, 6-(2,6-Dichlorophenyl)-2-((3-fluoro-4-(4-methylpiperazin-1-yl)phenyl)amino)-8,9-dihydroimidazo[1,2-a]pyrimido[5,4-e]pyrimidin-5(6H)-one] | – | – |
| 17 | 69 | 99 | – | 124 | 448 | – | C[C@@H]1CN(c2ccc(Nc3ncc4c(n3)N3CCN=C3N(c3c(Cl)cccc3Cl)C4=O)cc2F)C[C@H](C)N1C [Example 70, 6-(2,6-Dichlorophenyl)-2-((3-fluoro-4-((3S,5R)-3,4,5-trimethylpiperazin-1-yl)phenyl)amino)-8,9-dihydroimidazo[1,2-a]pyrimido[5,4-e]pyrimidin-5(6H)-one] | – | – |
| 36 | 74 | 98 | – | 44.3 | – | 603 | CN1CCN(c2ccc(Nc3ncc4c(n3)N3CCN=C3N(c3c(Cl)cccc3Cl)C4=O)cc2Cl)CC1 [Example 71, 2-((3-chloro-4-(4-methylpiperazin-1-yl)phenyl)amino)-6-(2,6-dichlorophenyl)-8,9-dihydroimidazo[1,2-a]pyrimido[5,4-e]pyrimidin-5(6H)-one] | – | – |
| 22 | 75 | 97 | 328 | 59.2 | – | – | C[C@@H]1CN(c2ccc(Nc3ncc4c(n3)N3CCN=C3N(c3c(Cl)cccc3Cl)C4=O)cc2Cl)C[C@H](C)N1C [Example 72, 6-(2,6-Dichlorophenyl)-2-((3-chloro-4-((3S,5R)-3,4,5-trimethylpiperazin-1-yl)phenyl)amino)-8,9-dihydroimidazo[1,2-a]pyrimido[5,4-e]pyrimidin-5(6H)-one] | – | – |
| – | – | 83 | – | 194 | 1430 | – | CN1CCN(c2ccc(Nc3ncc4c(n3)N3CCN=C3N(c3c(Cl)cccc3Cl)C4=O)cc2C(F)(F)F)CC1 [Example 73, 6-(2,6-Dichlorophenyl)-2-((4-(4-methylpiperazin-1-yl)-3-(trifluoromethyl)phenyl)amino)-8,9-dihydroimidazo[1,2-a]pyrimido[5,4-e]pyrimidin-5(6H)-one] | – | – |
| 15 | 61 | 98 | – | 182 | 708 | – | C[C@@H]1CN(c2ccc(Nc3ncc4c(n3)N3CCN=C3N(c3c(Cl)cccc3Cl)C4=O)cc2C(F)(F)F)C[C@H](C)N1C [Example 74, 6-(2,6-Dichlorophenyl)-2-((3-trifluoromethyl-4-((3S,5R)-3,4,5-trimethylpiperazin-1-yl)phenyl)amino)-8,9-dihydroimidazo[1,2-a]pyrimido[5,4-e]pyrimidin-5(6H)-one] | – | – |
| 24 | 80 | 100 | – | 40.2 | 161 | – | Cc1cc(Nc2ncc3c(n2)N2CCN=C2N(c2c(Cl)cccc2Cl)C3=O)ccc1N1CCN(C)CC1 [Example 75, 6-(2,6-Dichlorophenyl)-2-((3-methyl-4-(4-methylpiperazin-1-yl)phenyl)amino)-8,9-dihydroimidazo[1,2-a]pyrimido[5,4-e]pyrimidin-5(6H)-one] | stronger inhibitory effect on the growth of NCI-H1299 cells than AZD1775 | stronger inhibitory effect on the growth of LoVo cells than AZD1775 |

The remaining lines, values behind:

| SMILES | Inh. (%) of Wee1 kinase enzyme activity (Wee1 (h); C 0.01 μm compound) [%] | Inh. (%) of Wee1 kinase enzyme activity (Wee1 (h); C 0.1 μm compound) [%] | Inh. (%) of Wee1 kinase enzyme activity (Wee1 (h); C 1 μm compound) [%] | IC50 (NCI-H1299 cells; Homo sapiens, NCI-H1299 cells) [nM] | IC50 (LoVo cells) [nM] | IC50 (NCI-H1299 cells; [1]) [nM] | IC50 (NCI-H1299 cells; NCI-H1299 cells) [nM] | inhibitory effect on the growth of NCI-H1299 cells compared with AZD1775 (NCI-H1299 cells) | inhibitory effect on the growth of LoVo cells compared with AZD1775 (LoVo cells) |
| --- | --- | --- | --- | --- | --- | --- | --- | --- | --- |
| CC(C)N1Cc2cc(Nc3ncc4c(n3)N3CCN=C3N(c3c(F)cccc3Cl)C4=O)ccc2C2(CC2)C1 [Example 58, 6-(2-Chloro-6-fluorophenyl)-2-((2′-isopropyl-2′,3′-dihydro-1′H-spiro[cyclopropane-1,4′-isoquinolin]-7′-yl)amino)-8,9-dihydroimidazo[1,2-a]pyrimido[5,4-e]pyrimidin-5(6H)-one] | 46 | 92 | 100 | 426 | 90 | – | – | – | – |
| CN1CCn2nc(Nc3ncc4c(n3)N3CCN=C3N(c3c(F)cccc3Cl)C4=O)cc2C1 [Example 59, 6-(2-Chloro-6-fluorophenyl)-2-((5-methyl-4,5,6,7-tetrahydropyrazolo[1,5-a]pyrazin-2-yl)amino)-8,9-dihydroimidazo[1,2-a]pyrimido[5,4-e]pyrimidin-5(6H)-one] | – | – | 49 | > 10000 | > 100000 | – | – | – | – |
| Cc1cc(Nc2ncc3c(n2)N2CCN=C2N(c2c(F)cccc2F)C3=O)ccc1N1CCN(C)CC1 [Example 60, 6-(2,6-Difluorophenyl)-2-((3-methyl-4-(4-methylpiperazin-1-yl)phenyl)amino)-8,9-dihydroimidazo[1,2-a]pyrimido[5,4-e]pyrimidin-5(6H)-one] | 15 | 71 | 91 | 992 | 158 | – | – | – | – |
| Cc1cc(Nc2ncc3c(n2)N2CCN=C2N(c2c(F)cccc2C(F)(F)F)C3=O)ccc1N1CCN(C)CC1 [Example 61, 6-(2-Fluoro-6-(trifluoromethyl)phenyl)-2-((3-methyl-4-(4-methylpiperazin-1-yl)phenyl)amino)-8,9-dihydroimidazo[1,2-a]pyrimido[5,4-e]pyrimidin-5(6H)-one] | – | – | 82 | 1230 | 757 | – | – | – | – |
| Cc1cc(Nc2ncc3c(n2)N2CCN=C2N(c2c(C)cccc2F)C3=O)ccc1N1CCN(C)CC1 [Example 62, 6-(2-Fluoro-6-methylphenyl)-2-((3-methyl-4-(4-methylpiperazin-1-yl)phenyl)amino)-8,9-dihydroimidazo[1,2-a]pyrimido[5,4-e]pyrimidin-5(6H)-one] | – | – | 83 | 925 | 194 | – | – | – | – |
| CC(C)N1CCN(c2ccc(Nc3ncc4c(n3)N3CCN=C3N(c3c(Cl)cccc3Cl)C4=O)cc2)CC1 [Example 63, 6-(2,6-Dichlorophenyl)-2-((4-(4-isopropylpiperazin-1-yl)phenyl)amino)-8,9-dihydroimidazo[1,2-a]pyrimido[5,4-e]pyrimidin-5(6H)-one] | 17 | 76 | 99 | 360 | 76.8 | – | – | – | – |
| C[C@@H]1CN(c2ccc(Nc3ncc4c(n3)N3CCN=C3N(c3c(Cl)cccc3Cl)C4=O)cc2)C[C@H](C)N1C [Example 64, 6-(2,6-Dichlorophenyl)-2-((4-((3S,5R)-3,4,5-trimethylpiperazin-1-yl)phenyl)amino)-8,9-dihydroimidazo[1,2-a]pyrimido[5,4-e]pyrimidin-5(6H)-one] | 52 | 88 | 100 | 177 | 96.5 | – | – | – | – |
| CC(C)N1[C@H](C)CN(c2ccc(Nc3ncc4c(n3)N3CCN=C3N(c3c(Cl)cccc3Cl)C4=O)cc2)C[C@@H]1C [Example 65, 6-(2,6-Dichlorophenyl)-2-((4-((3S,5R)-4-isopropyl-3,5-dimethylpiperazin-1-yl)phenyl)amino)-8,9-dihydroimidazo[1,2-a]pyrimido[5,4-e]pyrimidin-5(6H)-one] | 18 | 68 | 98 | 404 | 102 | – | – | – | – |
